Measured values: article PMC3745430, “Novel Multiplexed Assay for Identifying SH2 Domain Antagonists of STAT Family Proteins” (PLoS ONE, 2013)

Legend:
[1] = test system: STAT3 nuclear translocation in HeLa cells; assay: STAT3 nuclear translocation assay in oncostatin M-stimulated HeLa cells; format: cell-based; conditions: for Fluorescent intensity of STAT3 in the nuclei, of the vehicle treatment: 1 h pretreatment, oncostatin M 30 ng/mL 10 min, HeLa
Procedure: The Cellomics STAT3 Activation Kit (Thermo Scientific) was used for the nuclear translocation assay. HeLa cells were incubated in a 96-well microplate for 24 h. Cells were pretreated with the test compounds for 1 hour, and 30 ng/mL (w/v) of oncostatin M was applied and the mixture was incubated for 10 min. The subsequent procedures were performed according to the manufacturer’s instructions. The cells were scanned with an ArrayScan VTI reader (Thermo Scientific), and analyzed with the Cytoplasm to Nucleus Translocation Application. The mean fluorescent values in the nuclei were calculated. The signals for vehicle treatment and no treatment (without oncostatin M) were represented as 100% and 0%, respectively, and the relative signal intensity was also calculated.

STAT5b(136–703) [2] = molecular target: T1, STAT5b(136–703) (Homo sapiens, UniProt P51692); assay: Single STAT5b-SH2 binding assay (AlphaScreen); conditions: non-multiplexed single assay
T1 construct: 136 to 703 of human STAT5b; 6×His-tag (N); made in house; host or cells: E. coli BL-21 Star (DE3) pLysS co-transformed with pBirAcm
T1 sequence (P51692 136-703): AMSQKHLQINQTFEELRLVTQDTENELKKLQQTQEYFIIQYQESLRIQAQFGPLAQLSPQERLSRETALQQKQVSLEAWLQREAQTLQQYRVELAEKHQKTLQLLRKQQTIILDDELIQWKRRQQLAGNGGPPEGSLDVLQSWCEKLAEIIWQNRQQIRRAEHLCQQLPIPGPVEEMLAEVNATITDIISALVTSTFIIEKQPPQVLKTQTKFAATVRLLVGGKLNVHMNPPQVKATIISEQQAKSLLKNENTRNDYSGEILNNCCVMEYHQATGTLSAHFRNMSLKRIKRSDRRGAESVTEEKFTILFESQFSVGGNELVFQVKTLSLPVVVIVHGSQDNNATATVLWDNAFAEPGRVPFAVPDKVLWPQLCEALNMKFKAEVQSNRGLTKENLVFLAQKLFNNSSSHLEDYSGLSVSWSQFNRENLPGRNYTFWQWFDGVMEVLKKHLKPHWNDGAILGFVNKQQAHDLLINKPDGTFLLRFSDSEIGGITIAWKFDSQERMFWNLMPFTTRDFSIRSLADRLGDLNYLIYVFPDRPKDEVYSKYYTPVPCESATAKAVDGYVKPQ
Procedure: (§1) Both AlphaLISA and AlphaScreen are bead-based nonradioactive binding assay systems for detecting biomolecular interactions in a microplate format. The binding of the biological partners brings the donor and acceptor beads into close proximity, and AlphaLISA produces a specific signal around 615 nm and AlphaScreen emits a broad signal between 520 and 620 nm. The assays were performed in a final reaction volume of 25 µL of the assay buffer, which contained 10 mM HEPES-NaOH (pH 7.4), 50 mM NaCl, 1 mM EDTA (pH 8.0), 0.1% (w/v) NP-40, and 10 ng/µL (w/v) BSA in a 96-well microplate at 25°C. The labeled phosphotyrosyl (pTyr, pY) peptide probes were DIG-GpYLPQTV and FITC-GpYLVLDKW for STAT3 and STAT5b, respectively. In the single assay for STAT3 binding, 100 nM STAT3(136–705) protein was incubated with a test compound dissolved in DMSO for 30 min, and 1.0 nM DIG-GpYLPQTV was added and the mixture was incubated for 90 min. Streptavidin-coated donor beads (0.25 µg/well) and anti-DIG AlphaLISA acceptor beads (0.25 µg/well) were added and incubated for 90 min before the signals were measured with EnVison Xcite (PerkinElmer Life Sciences). In the single assay for STAT5b binding, 20 nM STAT5b(136–703) was incubated with a test compound for 30 min, and 1.0 nM FITC-GpYLVLDKW was added and incubated for 90 min. Streptavidin-coated donor beads (0.25 µg/well) and anti-FITC AlphaScreen acceptor beads (0.25 µg/well) were added and incubated for 90 min before the signals were measured with EnVison Xcite. In the multiplexed assay, 100 nM STAT3(136–705) and 20 nM STAT5b(136–703) were incubated with a test compound for 30 min, and 1.0 nM DIG-GpYLPQTV and 1.0 nM FITC-GpYLVLDKW were added and incubated for 90 min. Streptavidin-coated donor beads (0.50 µg/well), anti-DIG AlphaLISA (0.25 µg/well), and anti-FITC AlphaScreen acceptor beads (0.25 µg/well) were added and incubated for 90 min before the signals were measured with EnVison Xcite. AlphaLISA and AlphaScreen signals for measuring STAT3- and STAT5b-SH2 binding, respectively, can be separately measured by using a dysprosium 572 nm and a europium 615 nm narrow bandwidth filter. In inhibitory assays, these signals for the bound state and the free state were represented as 0% and 100% inhibition, respectively. The bound state was measured by incubating the labeled peptide and the protein without test compounds. The free state was measured by incubating the same mixture with an additional 10 µM non-labeled peptide contained phosphorylated tyrosine, which competitively binds to its corresponding protein. The IC50 value was calculated by Graph pad prism 4.0. The mean and the standard error (SEM) of IC50 values were determined from three independent experiments. The Z’ value was calculated using the equation Z’ = 1–(3×SD_bound +3×SD_free)/(Signal_bound – Signal_free). STAT1 and Grb2 binding assays were performed as described in previous report. In the assays for selectivity of Compound 1, 100 pM biotinylated DIG or 100 pM biotinylated FITC was incubated with 10 µM or 30 µM Compound 1 for 30 min. Streptavidin-coated donor beads (0.25 µg/well) and anti-DIG AlphaLISA acceptor beads (0.25 µg/well) or anti-FITC AlphaScreen acceptor beads (0.25 µg/well) were added and incubated for 90 min before the signals were measured with EnVison Xcite.

Grb2-SH2 = molecular target: T2, Grb2-SH2 (Homo sapiens, UniProt P62993); assay: Grb2-SH2 binding AlphaScreen assay; conditions: AlphaScreen assay (Figure S8A)
T2 construct: made in house
T2 sequence (P62993 whole entry): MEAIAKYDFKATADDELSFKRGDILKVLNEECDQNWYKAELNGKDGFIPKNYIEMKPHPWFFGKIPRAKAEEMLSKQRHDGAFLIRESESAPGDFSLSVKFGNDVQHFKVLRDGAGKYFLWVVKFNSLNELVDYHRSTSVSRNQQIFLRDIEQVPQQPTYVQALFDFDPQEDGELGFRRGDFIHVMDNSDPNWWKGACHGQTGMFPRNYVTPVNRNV
Procedure: Both AlphaLISA and AlphaScreen are bead-based nonradioactive binding assay systems for detecting biomolecular interactions in a microplate format. The binding of the biological partners brings the donor and acceptor beads into close proximity, and AlphaLISA produces a specific signal around 615 nm and AlphaScreen emits a broad signal between 520 and 620 nm. The assays were performed in a final reaction volume of 25 µL of the assay buffer, which contained 10 mM HEPES-NaOH (pH 7.4), 50 mM NaCl, 1 mM EDTA (pH 8.0), 0.1% (w/v) NP-40, and 10 ng/µL (w/v) BSA in a 96-well microplate at 25°C. […] Streptavidin-coated donor beads (0.25 µg/well) and anti-DIG AlphaLISA acceptor beads (0.25 µg/well) were added and incubated for 90 min before the signals were measured with EnVison Xcite (PerkinElmer Life Sciences). […] Streptavidin-coated donor beads (0.25 µg/well) and anti-FITC AlphaScreen acceptor beads (0.25 µg/well) were added and incubated for 90 min before the signals were measured with EnVison Xcite. […] Streptavidin-coated donor beads (0.50 µg/well), anti-DIG AlphaLISA (0.25 µg/well), and anti-FITC AlphaScreen acceptor beads (0.25 µg/well) were added and incubated for 90 min before the signals were measured with EnVison Xcite. […] The bound state was measured by incubating the labeled peptide and the protein without test compounds. […] The IC50 value was calculated by Graph pad prism 4.0. […]

STAT3(136–705) = molecular target: T3, STAT3(136–705) (Homo sapiens, UniProt P40763); assay: Single STAT3-SH2 binding assay (AlphaLISA); conditions: non-multiplexed single assay
T3 construct: amino acids 136 to 705 of human STAT3 and 136 to 703 of human STAT5b; 6×His-tag (N); made in house; host or cells: E. coli BL-21 Star (DE3) pLysS co-transformed with pBirAcm
T3 sequence (P40763 136-705): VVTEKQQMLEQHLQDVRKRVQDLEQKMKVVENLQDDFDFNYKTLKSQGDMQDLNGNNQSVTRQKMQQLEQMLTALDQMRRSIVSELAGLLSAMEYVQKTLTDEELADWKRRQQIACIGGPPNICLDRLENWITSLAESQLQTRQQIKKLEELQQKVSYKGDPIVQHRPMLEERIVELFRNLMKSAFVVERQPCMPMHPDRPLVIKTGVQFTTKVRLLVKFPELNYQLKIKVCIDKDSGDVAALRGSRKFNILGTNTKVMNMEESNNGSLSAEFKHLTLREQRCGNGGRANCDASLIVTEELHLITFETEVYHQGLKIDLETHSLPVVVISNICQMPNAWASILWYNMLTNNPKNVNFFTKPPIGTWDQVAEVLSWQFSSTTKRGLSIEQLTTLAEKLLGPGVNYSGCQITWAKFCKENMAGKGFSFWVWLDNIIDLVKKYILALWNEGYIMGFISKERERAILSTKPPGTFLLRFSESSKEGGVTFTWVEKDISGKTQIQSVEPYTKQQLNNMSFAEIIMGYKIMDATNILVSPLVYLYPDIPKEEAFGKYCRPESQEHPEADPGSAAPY
Procedure: as §1

STAT5b(136–703) [3] = molecular target: T1, STAT5b(136–703); assay: Multiplexed Alpha assay, STAT5b-SH2 binding (AlphaScreen); conditions: multiplexed binding assay; mean and SEM, three independent experiments; read-out: IC50 STAT5b-SH2 binding (STAT5b)
Procedure: as §1

## O=C1C=CC(=NC2=C(Cl)C(=O)c3ccccc3C2=O)C=C1 [Compound 1]
[1]; 60 µM
  Fluorescent intensity of STAT3 in the nuclei, of the vehicle treatment: 51%
[1]; 100 µM
  Fluorescent intensity of STAT3 in the nuclei, of the vehicle treatment: 31%
[1]; HeLa cells, pretreatment before oncostatin M (Figure 6, Figure S9)
  Effect on STAT3 nuclear translocation: reduced the STAT3 nuclear translocation in a dose-dependent manner
STAT5b(136–703) [2]
  IC50: 10 µM
Grb2-SH2
  Inhibition of Grb2-SH2 binding: inhibited neither
STAT3(136–705)
  IC50: 3.8 µM
STAT5b(136–703) [3]
  IC50: 11 ± 0.27 µM
